{
  "source": "paper PMC9124820",
  "about": "“In vitro evaluation of fenfluramine and norfenfluramine as victims of drug interactions” (Pharmacology Research & Perspectives, 2022)",
  "assay_type_in_all_cases": "in vitro ADME",
  "key": {"[1]": {"assay": "Metabolic stability and metabolite identity, rat intestinal S9 fractions", "settings": "intestinal S9 fractions, pH 7.4; 1 µM FFA, rat intestine S9 fractions; outside assay detection limits", "method": "(§1) LC‐MS/MS analyses to assess metabolic stability and identify the transporter substrate were performed using an API 4000 QTRAP mass spectrometer (SCIEX, Framingham, MA) with electrospray ionization in positive mode. Chromatography was performed using an Atlantis dC18 analytical column (100 × 2.1 mm, 5 µm; Waters Corporation, Milford, MA). Mobile phases were 0.2% v/v formic acid in water and 0.2% v/v formic acid in acetonitrile. For metabolic stability experiments, FFA and metabolites were eluted at a flow rate of 0.6 mL/min, with a linear gradient of 20%−80% acetonitrile from 0.30−2.0 min. For transporter substrate experiments, the gradient was slightly modified to achieve suitable chromatography. The mass transitions monitored were 232.0 > 159.0 for FFA and 348.0 > 330.0 for 1ʹ‐OH‐midazolam‐d4 internal standard. […]\n(§2) FFA (1 or 10 µM) was incubated with liver and intestinal S9 fractions (2 mg protein/mL) at 37 ± 1°C in 0.2‐mL incubation mixtures containing potassium phosphate buffer (50 mM, pH 7.4), magnesium chloride (MgCl2) (3 mM), and EDTA (1 mM, pH 7.4), in the presence or absence of a three‐component cofactor mixture (NADPH‐generating system, uridine diphosphate glucuronic acid (UDPGA) [8 mM], and 3’‐phosphoadenosine 5’‐phosphosulfate [0.5 mM]). […] Supernatant fractions were analyzed by LC‐MS/MS.\nTo characterize substrate loss and metabolic stability, duplicate samples were analyzed by LC‐MS/MS to determine the change in substrate concentration over the incubation period. The rate constant of elimination (kel, min^−1) was determined from the time course of substrate loss based on single exponential decay (A(t)=A0(‐kelt)) . Half‐life in vitro was determined by the following equation: t1/2 = 0.693/kel. The in vitro intrinsic clearance (CLint) was calculated from the rate constant of elimination as follows: CLintμL/min/mgprotein=kelmin^‐1×incubationvolume(μL)/mgproteinperincubation.\nPercent loss of substrate was determined by normalizing the mean analyte peak‐area ratio at each time point to the average of four replicates at the 0‐min time point (100%)."}, "[2]": {"assay": "Metabolic stability and metabolite identity, rat liver S9 fractions", "settings": "pH 7.4; 1 µM FFA, rat liver S9 fractions 2 mg protein/mL", "method": "as §1, with “For transporter substrate experiments, the gradient was slightly modified to achieve suitable chromatography.” left out\nas §2\n(§3) To characterize substrate loss and metabolic stability, duplicate samples were analyzed by LC‐MS/MS to determine the change in substrate concentration over the incubation period. […]"}, "[3]": {"assay": "Metabolic stability and metabolite identity, human intestinal S9 fractions", "settings": "pH 7.4, 1 µM FFA, human intestine S9 fractions, outside assay detection limits", "method": "as §1, with “For transporter substrate experiments, the gradient was slightly modified to achieve suitable chromatography.” left out\nas §2, §3"}},
  "data": [
    {"smiles": "CCNC(C)Cc1cccc(C(F)(F)F)c1", "note": "(racemic) [FFA, (RS)‐ethyl (α‐methyl‐3‐trifluoromethylphenethyl)amine]", "values": [
      {"measurement": "half-life at 1 µM", "setting": "[1]", "value": "> 2", "unit": "h"},
      {"measurement": "microsomal CLint at 1 µM", "setting": "[1]", "value": "< 2.9", "unit": "µL/min/mg"},
      {"measurement": "half-life at 1 µM", "setting": "[2]", "value": 0.59, "unit": "h"},
      {"measurement": "microsomal CLint at 1 µM", "setting": "[2]", "value": 9.8, "unit": "µL/min/mg"},
      {"measurement": "half-life at 1 µM", "setting": "[3]", "value": "> 2", "unit": "h"},
      {"measurement": "microsomal CLint at 1 µM", "setting": "[3]", "value": "< 2.9", "unit": "µL/min/mg"}
    ]}
  ]
}
